Measured values published in patent US20250025443A1, “COMPOUNDS AND METHODS FOR TREATING CORONA VIRUSES” (CLEAR CREEK BIO, INC., priority 2021, published 2025).
Read-outs that look alike come from different tables or passages of the source.

Target: SARS-CoV-2 Papain-Like Protease (PLpro) (Severe acute respiratory syndrome coronavirus 2 (2019-nCoV) (SARS-CoV-2), UniProt P0DTD1)
Test: biochemical
Conditions: read-out: PLpro IC50
[1] = SARS-CoV-2 PLpro enzymatic fluorescence assay
[2] = PLpro 6.25 nM, substrate 25 μM, 60 min at 25° C., for more potent compounds PLpro 1 nM, 120 min
[3] = PLpro enzymatic fluorescence assay, class symbols

For `Cc1ccc(OCCNC(=O)OC(C)(C)C)cc1C(=O)N[C@H](C)c1cccc2ccccc12` [Compound 158, (R)-tert-Butyl(2-(4-methyl-3-((1-(naphthalen-1-yl)ethyl)carbamoyl)phenoxy)ethyl)carbamate], the IC50 [1] was 1000 to 5000 nM.

For `Cc1ccc(OCCN(C)C)cc1C(=O)N[C@H](C)c1cccc2ccccc12` [Compound 160, (R)-5-(2-(Dimethylamino)ethoxy)-2-methyl-N-(1-(naphthalen-1-yl)ethyl)benzamide], the IC50 [1] was 100 to 1000 nM.

Work on `CCS(=O)(=O)N1CCC([C@@H](C)NC(=O)c2cc(NC3CN(C(=O)OC(C)(C)C)C3)ccc2C)CC1` [Compound 161, tert-Butyl (R)-3-((3-((1-(1-(ethylsulfonyl)piperidin-4-yl)ethyl)carbamoyl)-4-methylphenyl)amino)azetidine-1-carboxylate] yielded an IC50 [1] of over 5000 nM.

With `Cc1ccc(OC2CCNCC2)cc1C(=O)N[C@H](C)c1cccc2ccccc12` [Compound 162, (R)-2-Methyl-N-(1-(naphthalen-1-yl)ethyl)-5-(piperidin-4-yloxy)benzamide] the IC50 [1] was 100 to 1000 nM.

Work on `Cc1ccc(N)cc1NC(=O)C(C)c1cccc2ccccc12` (stereo not shown) [Compound 163, N-(5-Amino-2-methylphenyl)-2-(naphthalen-1-yl)propanamide] yielded an IC50 [1] of over 5000 nM.

`Cc1ccc(OC2CCN(C(=O)OC(C)(C)C)CC2)cc1C(=O)N[C@H](C)c1cccc2ccccc12` [Compound 164, (R)-tert-Butyl 4-(4-methyl-3-((1-(naphthalen-1-yl)ethyl)carbamoyl)phenoxy)piperidine-1-carboxylate] was tested, and the IC50 [1] was 1000 to 5000 nM.

Molecule `CC(=O)N(c1ccc(C)c(C(=O)N[C@H](C)c2cccc3ccccc23)c1)C(CN)CO` (stereo partly drawn) [Compound 165, 5-(N-(1-Amino-3-hydroxypropan-2-yl)acetamido)-2-methyl-N-((R)-1-(naphthalen-1-yl)ethyl)benzamide] has an IC50 [1] of over 5000 nM.

With `CCS(=O)(=O)N1CCC([C@@H](C)NC(=O)c2cc(NC3CNC3)ccc2C)CC1` [Compound 166, (R)-5-(Azetidin-3-ylamino)-N-(1-(1-(ethylsulfonyl)piperidin-4-yl)ethyl)-2-methylbenzamide] the IC50 [1] was over 5000 nM.

Molecule `Cc1cc2ccc(=O)[nH]c2cc1C(=O)N[C@H](C)c1cccc2ccccc12` [Compound 167, (R)-6-Methyl-N-(1-(naphthalen-1-yl)ethyl)-2-oxo-1,2-dihydroquinoline-7-carboxamide] has an IC50 [1] of over 5000 nM.

For `Cc1ccc(NC2CNC2)cc1C(=O)NC(C)c1cccc2c1OCCO2` (stereo not shown) [Compound 168, 5-(Azetidin-3-ylamino)-N-(1-(2,3-dihydrobenzo[b][1,4]dioxin-5-yl)ethyl)-2-methylbenzamide], the IC50 [2] was over 5000 nM.

`Cc1ccc(NC2CNC2)cc1C(=O)NC1(c2cccc(-c3cccs3)c2)CC1` [Compound 169, 5-(Azetidin-3-ylamino)-2-methyl-N-(1-(3-(thiophen-2-yl)phenyl)cyclopropyl)benzamide] gave an IC50 [1] of 100 to 1000 nM.

Work on `Cc1cc2cc(CN)[nH]c2cc1C(=O)NC1(c2cccc3ccccc23)CC1` [Compound 170, 2-(Aminomethyl)-5-methyl-N-(1-(naphthalen-1-yl)cyclopropyl)-1H-indole-6-carboxamide] yielded an IC50 [1] of under 100 nM.

For `Cc1ccc(OC2CNC2)cc1C(=O)NC1(c2cccc3ccccc23)CC1` [Compound 171, 5-(Azetidin-3-yloxy)-2-methyl-N-(1-(naphthalen-1-yl)cyclopropyl)benzamide], the IC50 [1] was 100 to 1000 nM.

With `Cc1ccc(NC2CNC2)cc1C(=O)NC(C)c1cccc2c1CCCC2` (stereo not shown) [Compound 172, 5-(Azetidin-3-ylamino)-2-methyl-N-(1-(5,6,7,8-tetrahydronaphthalen-1-yl)ethyl)benzamide] the IC50 [2] was over 5000 nM.

`Cc1cc2cc(CN(C)C)[nH]c2cc1C(=O)NC1(c2cccc3ccccc23)CC1` [Compound 173, 2-((Dimethylamino)methyl)-5-methyl-N-(1-(naphthalen-1-yl)cyclopropyl)-1H-indole-6-carboxamide] gave an IC50 [1] of 100 to 1000 nM.

For `Cc1cc2cn[nH]c2cc1C(=O)NC1(c2cccc3ccccc23)CC1` [Compound 176, 5-Methyl-N-(1-(naphthalen-1-yl)cyclopropyl)-1H-indazole-6-carboxamide], the IC50 [1] was 100 to 1000 nM.

Work on `Cc1ccc(NC2CNC2)cc1C(=O)NC1(c2cccc3ccccc23)CC1` [Compound 177, 5-(Azetidin-3-ylamino)-2-methyl-N-(1-(naphthalen-1-yl)cyclopropyl)benzamide] yielded an IC50 [1] of 100 to 1000 nM.

`c1ccc2c(C3(NCc4ccc5[nH]ncc5c4)CC3)cccc2c1` [Compound 178, N-((1H-indazol-5-yl)methyl)-1-(naphthalen-1-yl)cyclopropan-1-amine] showed an IC50 [1] of over 5000 nM.

`Cc1cc2cc(CNC(=O)OC(C)(C)C)[nH]c2cc1C(=O)NC1(c2cccc3ccccc23)CC1` [Compound 180, tert-Butyl((5-methyl-6-((1-(naphthalen-1-yl)cyclopropyl)carbamoyl)-1H-indol-2-yl)methyl)carbamate] gave an IC50 [1] of 100 to 1000 nM.

`Cc1ccc(NC2CN(C(=O)OC(C)(C)C)C2)cc1C(=O)NC(C)c1cccc2c1CCCC2` (stereo not shown) [Compound 181] was tested, and the IC50 [3] was over 5000 nM.

For `Cc1ccc(N)cc1C(=O)NC(c1cccc2ccccc12)C(F)(F)F` (stereo not shown) [Compound 183, 5-Amino-2-methyl-N-(2,2,2-trifluoro-1-(naphthalen-1-yl)ethyl)benzamide], the IC50 [1] was 1000 to 5000 nM.

`CN(Cc1ccc2[nH]ncc2c1)C1(c2cccc3ccccc23)CC1` [Compound 184, N-((1H-Indazol-5-yl)methyl)-N-methyl-1-(naphthalen-1-yl)cyclopropane amine] gave an IC50 [1] of over 5000 nM.

Work on `Cc1ccc(N)cc1C(=O)NC(c1cccc2ccccc12)C(F)F` (stereo not shown) [Compound 185, 5-Amino-N-(2,2-difluoro-1-(naphthalen-1-yl)ethyl)-2-methylbenzamide] yielded an IC50 [1] of 1000 to 5000 nM.

`Cc1ccc(NC2CNC2)cc1C(=O)NC1(c2cccc(-c3ccc(CN4CCCC4)s3)c2)CC1` [Compound 186, 5-(Azetidin-3-ylamino)-2-methyl-N-(1-(3-(5-(pyrrolidin-1-ylmethyl)thiophen-2-yl)phenyl)cyclopropyl)benzamide] was tested, and the IC50 [1] was 100 to 1000 nM.

With `Cc1ccc(NC2CNC2)cc1C(=O)NC1(c2cccc(-c3ccccc3)c2)CC1` [Compound 187, N-(1-([1,1′-Biphenyl]-3-yl)cyclopropyl)-5-(azetidin-3-ylamino)-2-methylbenzamide] the IC50 [1] was 1000 to 5000 nM.

With `Cc1ccc(NC2CN(C(=O)OC(C)(C)C)C2)cc1C(=O)NC1(c2cccc(-c3ccccc3)c2)CC1` [Compound 188, tert-Butyl 3-((3-((1-([1,1′-biphenyl]-3-yl)cyclopropyl)carbamoyl)-4-methylphenyl)amino)azetidine-1-carboxylate] the IC50 [3] was over 5000 nM.

In the case of `Cc1cc2cc(CNC(=O)OC(C)(C)C)[nH]c2cc1C(=O)N[C@H](C)c1cccc2ccccc12` [Compound 189, (R)-tert-Butyl((5-methyl-6-((1-(naphthalen-1-yl)ethyl)carbamoyl)-1H-indol-2-yl)methyl)carbamate], the IC50 [1] is reported as over 5000 nM.

Work on `Cc1cc2c(cc1C(=O)NC1(c3cccc4ccccc34)CC1)NC(CN)C2` (stereo not shown) [Compound 190, 2-(Aminomethyl)-5-methyl-N-(1-(naphthalen-1-yl)cyclopropyl)indoline-6-carboxamide] yielded an IC50 [1] of under 100 nM.

Molecule `Cc1ccc(N)cc1C(=O)NC1(c2cccc3ccccc23)COC1` [Compound 191, 5-Amino-2-methyl-N-(3-(naphthalen-1-yl)oxetan-3-yl)benzamide] has an IC50 [1] of 100 to 1000 nM.

With `Cc1cc2cc(CN(C)C)n(CO)c2cc1C(=O)N[C@H](C)c1cccc2ccccc12` [Compound 192, (R)-2-((Dimethylamino)methyl)-1-(hydroxymethyl)-5-methyl-N-(1-(naphthalen-1-yl)ethyl)-1H-indole-6-carboxamide] the IC50 [1] was 100 to 1000 nM.

`Cc1cc2c(cc1C(=O)NC1(c3cccc4ccccc34)CC1)N1C(=O)NCC1C2` (stereo not shown) [Compound 194, 7-Methyl-N-(1-(naphthalen-1-yl)cyclopropyl)-3-oxo-2,3,9,9a-tetrahydro-1H-imidazo[1,5-a]indole-6-carboxamide] was tested, and the IC50 [1] was 1000 to 5000 nM.

`Cc1ccc(N)cc1C(=O)NC(C#N)c1cccc2ccccc12` (stereo not shown) [Compound 195, 5-Amino-N-(cyano(naphthalen-1-yl)methyl)-2-methylbenzamide] gave an IC50 [1] of over 5000 nM.

Molecule `Cc1ccc(NC2CNC2)cc1C(=O)NC1(c2cccc(-c3ccc(CN[C@H]4CC[C@@H](O)C4)s3)c2)CC1` [Compound 196, 5-(Azetidin-3-ylamino)-N-(1-(3-(5-((((1S,3R)-3-hydroxycyclopentyl)amino)methyl)thiophen-2-yl)phenyl)cyclopropyl)-2-methylbenzamide] has an IC50 [1] of 100 to 1000 nM.

For `Cc1cc2cc(CN)oc2cc1C(=O)NC1(c2cccc3ccccc23)CC1` [Compound 197, 2-(Aminomethyl)-5-methyl-N-(1-(naphthalen-1-yl)cyclopropyl)benzofuran-6-carboxamide], the IC50 [1] was under 100 nM.

Molecule `Cc1cc2cc(CN(C)C)oc2cc1C(=O)NC1(c2cccc3ccccc23)CC1` [Compound 198, 2-((Dimethylamino)methyl)-5-methyl-N-(1-(naphthalen-1-yl)cyclopropyl)benzofuran-6-carboxamide] has an IC50 [1] of 100 to 1000 nM.

In the case of `Cc1cc2cc[nH]c2cc1C(=O)NC1(c2cccc3ccccc23)CC1` [Compound 199, 5-Methyl-N-(1-(naphthalen-1-yl)cyclopropyl)-1H-indole-6-carboxamide], the IC50 [1] is reported as 100 to 1000 nM.

`Cc1ccc(N)cc1C(=O)NC(CF)c1cccc2ccccc12` (stereo not shown) [Compound 200, 5-Amino-N-(2-fluoro-1-(naphthalen-1-yl)ethyl)-2-methylbenzamide] gave an IC50 [1] of 1000 to 5000 nM.

`Cc1cc2ccn(C)c2cc1C(=O)NC1(c2cccc3ccccc23)CC1` [Compound 201, 1,5-Dimethyl-N-(1-(naphthalen-1-yl)cyclopropyl)-1H-indole-6-carboxamide] was tested, and the IC50 [1] was 100 to 1000 nM.

In the case of `Cc1cc2cc(CCN)[nH]c2cc1C(=O)NC1(c2cccc3ccccc23)CC1` [Compound 202, 2-(2-Aminoethyl)-5-methyl-N-(1-(naphthalen-1-yl)cyclopropyl)-1H-indole-6-carboxamide], the IC50 [1] is reported as 100 to 1000 nM.

`Cc1cc2ccn(CCN)c2cc1C(=O)NC1(c2cccc3ccccc23)CC1` [Compound 203, 1-(2-Aminoethyl)-5-methyl-N-(1-(naphthalen-1-yl)cyclopropyl)-1H-indole-6-carboxamide] showed an IC50 [1] of 100 to 1000 nM.
